Test results from patent US20230112450A1, “COMBINED USE OF CTB006 AND PONATINIB” (Beijing Sinotau Bio-Pharmaceuticals Technology Co., Ltd., priority 2020, published 2023).

Experiments:
[1] = system: MCF-7 cells; assay: Tumor cell survival by ATPlite after 24 h incubation; CDI; type: cell-based; settings: for CDI: DR5 agonist in combination with Ponatinib
Method: (§1) The interaction between CTB006 antibody and Ponatinib: we used coefficient of drug interaction (CDI)^[1,2] to evaluate the combined effect of CTB006 antibody and chemotherapeutic drugs. CDI was calculated according to the following formula: CDI=AB/A×B; AB was the ratio of the detection values of the two-drug combination group to the control group (survival rate of the drug combination group), and A or B was the ratio of the detection values of each individual drug to the control group (survival rate of the drug alone group).
(§2) The survival of each tumor cell was observed by ATPlite method after incubation at 37° C., 5% CO2 for 24 h.
(§3) Methods were as described above.

[2] = system: S2VP10 cells; assay: as above; type: cell-based; settings: for CDI: DR5 agonist in combination with Ponatinib
Method: as §1, §2, §3

[3] = system: A549 cells; assay: as above; type: cell-based; settings: for CDI: DR5 agonist in combination with Ponatinib
Method: as §1, §2, §3

[4] = system: PDX model CS266; assay: Gastric cancer PDX transplantation tumor model; settings: day 31; CTB006 10 mg/kg iv qd, Ponatinib 30 mg/kg p.o qd
Method: To test the in vivo pharmacodynamic efficacy of CTB006 in combination with Ponatinib, several tumor animal models were selected for testing, including pancreatic cancer cells MIA-PACA-2 CDX model and multiple PDX models covering multiple cancers of intestinal cancer (CS237, CS263, CS264), lung cancer (CS225), and gastric cancer (CS266, GAS033).
(§4) Patient-derived transplantation tumor models were established subcutaneously in nude mice or NOD/SCID mice, which was administered with CTB006 alone (10 mg/kg, iv, qd), Ponatinib alone (30 mg/kg, p.o, qd) the combination of them, while the control group was given an equal volume of saline.
At day 31 after administration, when the mean tumor volume of the negative control group and CTB006 alone group reached 1 cm^3, the negative control group was sacrificed, and the administration was stopped for 5-Fu positive control group, Ponatinib alone group and the combination group and the observation continued.

[5] = system: PDX model CS264; assay: Colorectal cancer PDX transplantation tumor model; type: in vivo, nude mice or NOD/SCID mice; settings: day 32 after administration; CTB006 10 mg/kg iv qd, Ponatinib 30 mg/kg p.o qd
From the text: (§5) To test the in vivo pharmacodynamic efficacy of CTB006 in combination with Ponatinib, several tumor animal models were selected for testing, including pancreatic cancer cells MIA-PACA-2 CDX model and multiple PDX models covering multiple cancers of intestinal cancer (CS237, CS263, CS264), lung cancer (CS225), and gastric cancer (CS266, GAS033). For mathematical statistics, ANOVA analysis was used, and P<0.05 indicates a statistically significant difference and is marked with *; P<0.01 indicates a highly significant statistical difference and is marked with **.
as §4

[6] = system: PDX model CS225; assay: Lung cancer PDX transplantation tumor model; type: in vivo, nude mice or NOD/SCID mice; settings: day 28 after administration; CTB006 10 mg/kg iv qd, Ponatinib 30 mg/kg p.o qd
From the text: as §5, §4

[7] = system: PDX model GAS033; assay: Gastric cancer PDX transplantation tumor model; type: in vivo, nude mice or NOD/SCID mice; settings: day 16 after administration; CTB006 10 mg/kg iv qd, Ponatinib 30 mg/kg p.o qd
From the text: as §5, §4

[8] = system: PDX model CS237; assay: Colorectal cancer PDX transplantation tumor model; type: in vivo, nude mice or NOD/SCID mice; settings: day 52 after administration; CTB006 10 mg/kg iv qd, Ponatinib 30 mg/kg p.o qd
From the text: as §5, §4

[9] = system: MIA-Paca-2 transplanted tumor; assay: Pancreatic cancer CDX model, subcutaneous transplantation; settings: CTB006 10 mg/kg iv qw, Ponatinib 30 mg/kg p.o qd, alone or in combination, 22 days; euthanized at tumor volume 1 cm^3
Method: The CDX model was established by subcutaneous transplantation of MIA-Paca-2 in BALB/c nude mice (Vital River), and drug administration was started when the tumor volume was about 0.1 cm^3, and when it reached 1 cm^3, the animals were ethically euthanized and survival time was recorded. CTB006 (10 mg/kg, iv, qw) and Ponatinib (30 mg/kg, p.o, qd) were administered alone or in combination for treatment groups, and the control group was administered an equal volume of saline.

[10] = system: primary tumor cells S2; assay: Killing of primary tumor cells from ovarian cancer ascites; CDI; type: cell-based
Method: as §1, §2

[11] = system: primary tumor cells S1; assay: as above; type: cell-based
Method: as §1, §2

[12] = system: SK-HEP-1 cells; assay: Tumor cell survival by ATPlite after 24 h incubation; CDI; type: cell-based
Method: as §1, §2

[13] = system: TE1 cells; assay: as above; type: cell-based
Method: as §1, §2

[14] = system: N87 cells; assay: as above; type: cell-based
Method: as §1, §2

[15] = system: SGC-7901 cells; assay: as above; type: cell-based
Method: as §1, §2

[16] = system: HT29 cells; assay: as above; type: cell-based
Method: as §1, §2

[17] = system: Huh-1 cells; assay: as above; type: cell-based
Method: as §1, §2

[18] = system: S2Lm7AA cells; assay: as above; type: cell-based
Method: as §1, §2

[19] = system: PDX model CS263; assay: Colorectal cancer PDX transplantation tumor model
From the text: as §5, §4

AMG655: DR5 agonistic monoclonal antibody Conatumumab (AMG655, Amgen)
CDI [1]: 0.317 | killing effect ([1]; drug alone): significant killing effect | killing effect ([1]; used in combination): more significant | CDI [2]: 0.8123 | CDI [3]: 0.6362

O=c1[nH]cc(F)c(=O)[nH]1 [5-Fu]
tumor inhibition rates (TGI) [4]: 57.5% | tumor inhibition rates (TGI) [5]: 31.2%

CC(=O)O[C@H]1C(=O)[C@@]2(C)[C@H]([C@H](OC(=O)c3ccccc3)[C@]3(O)C[C@H](OC(=O)[C@H](O)[C@@H](NC(=O)c4ccccc4)c4ccccc4)C(C)=C1C3(C)C)[C@]1(OC(C)=O)CO[C@@H]1C[C@@H]2O [Taxol]
tumor inhibition rates (TGI) [6]: 50%

Cc1ccc(C(=O)Nc2ccc(CN3CCN(C)CC3)c(C(F)(F)F)c2)cc1C#Cc1cnc2cccnn12 [Ponatinib]
tumor inhibition rates (TGI) [4]: 87.7% | tumor inhibition rates (TGI) [6]: 50% | tumor inhibition rate (TGI) [7]: 37% | tumor inhibition rate (TGI) [8]: 43.8% | tumor inhibition rates (TGI) [5]: 32.4% | median survival time [9]: 34.5 days | Survival Rate (%) ([10]; Ponatinib alone 25 nM): 101.93% | Survival Rate (%) ([10]; Ponatinib alone 50 nM): 109.27% | Survival Rate (%) ([10]; Ponatinib alone 100 nM): 98.46% | Survival Rate (%) ([10]; Ponatinib alone 200 nM): 90.46% | Survival Rate (%) ([11]; Ponatinib alone 25 nM): 89.60% | Survival Rate (%) ([11]; Ponatinib alone 50 nM): 101.09% | Survival Rate (%) ([11]; Ponatinib alone 100 nM): 85.81% | Survival Rate (%) ([11]; Ponatinib alone 200 nM): 82.23% | Survival Rate (%) ([12]; Ponatinib alone 15.625 nM): 95.48% | Survival Rate (%) ([12]; Ponatinib alone 31.25 nM): 92.47% | Survival Rate (%) ([12]; Ponatinib alone 62.5 nM): 92.34% | Survival Rate (%) ([12]; Ponatinib alone 125 nM): 84.53% | Survival Rate (%) ([12]; Ponatinib alone 250 nM): 77.45% | Survival Rate (%) ([12]; Ponatinib alone 500 nM): 68.54% | Survival Rate (%) ([12]; Ponatinib alone 1000 nM): 67.85% | Survival Rate (%) ([13]; Ponatinib alone 15.625 nM): 107.94% | Survival Rate (%) ([13]; Ponatinib alone 31.25 nM): 103.25% | Survival Rate (%) ([13]; Ponatinib alone 62.5 nM): 104.04% | Survival Rate (%) ([13]; Ponatinib alone 125 nM): 100.27% | Survival Rate (%) ([13]; Ponatinib alone 250 nM): 97.30% | Survival Rate (%) ([13]; Ponatinib alone 500 nM): 89.97% | Survival Rate (%) ([13]; Ponatinib alone 1000 nM): 73.00% | Survival Rate (%) ([14]; Ponatinib alone 15.625 nM): 87.89% | Survival Rate (%) ([14]; Ponatinib alone 31.25 nM): 83.79% | Survival Rate (%) ([14]; Ponatinib alone 62.5 nM): 84.36% | Survival Rate (%) ([14]; Ponatinib alone 125 nM): 83.71% | Survival Rate (%) ([14]; Ponatinib alone 250 nM): 82.65% | Survival Rate (%) ([14]; Ponatinib alone 500 nM): 84.46% | Survival Rate (%) ([14]; Ponatinib alone 1000 nM): 82.19% | Survival Rate (%) ([15]; Ponatinib alone 15.625 nM): 100.08% | Survival Rate (%) ([15]; Ponatinib alone 31.25 nM): 98.30% | Survival Rate (%) ([15]; Ponatinib alone 62.5 nM): 99.90% | Survival Rate (%) ([15]; Ponatinib alone 125 nM): 95.83% | Survival Rate (%) ([15]; Ponatinib alone 250 nM): 86.80% | Survival Rate (%) ([15]; Ponatinib alone 500 nM): 75.77% | Survival Rate (%) ([15]; Ponatinib alone 1000 nM): 61.42% | Survival Rate (%) ([16]; Ponatinib alone 15.625 nM): 102.78% | Survival Rate (%) ([16]; Ponatinib alone 31.25 nM): 103.51% | Survival Rate (%) ([16]; Ponatinib alone 62.5 nM): 102.93% | Survival Rate (%) ([16]; Ponatinib alone 125 nM): 95.77% | Survival Rate (%) ([16]; Ponatinib alone 250 nM): 84.39% | Survival Rate (%) ([16]; Ponatinib alone 500 nM): 87.91% | Survival Rate (%) ([16]; Ponatinib alone 1000 nM): 80.77% | Survival Rate (%) ([17]; Ponatinib alone 15.625 nM): 97.49% | Survival Rate (%) ([17]; Ponatinib alone 31.25 nM): 92.59% | Survival Rate (%) ([17]; Ponatinib alone 62.5 nM): 91.15% | Survival Rate (%) ([17]; Ponatinib alone 125 nM): 83.68% | Survival Rate (%) ([17]; Ponatinib alone 250 nM): 79.87% | Survival Rate (%) ([17]; Ponatinib alone 500 nM): 70.61% | Survival Rate (%) ([17]; Ponatinib alone 1000 nM): 64.68% | Survival Rate (%) ([18]; Ponatinib alone 15.625 nM): 90.79% | Survival Rate (%) ([18]; Ponatinib alone 31.25 nM): 90.05% | Survival Rate (%) ([18]; Ponatinib alone 62.5 nM): 85.82% | Survival Rate (%) ([18]; Ponatinib alone 125 nM): 87.89% | Survival Rate (%) ([18]; Ponatinib alone 250 nM): 79.85% | Survival Rate (%) ([18]; Ponatinib alone 500 nM): 76.76% | Survival Rate (%) ([18]; Ponatinib alone 1000 nM): 77.11% | tumor inhibition rates (TGI) ([19]; day 44 after administration, CTB006 10 mg/kg iv qd, Ponatinib 30 mg/kg p.o qd): 45.3% | median survival ([19]; time to reach the mean tumor volume of 1.0 cm^3 as cutoff, administration stopped at day 44): 56 days | Survival Rate (%) ([1]; Ponatinib alone 15.625 nM): 102.70% | Survival Rate (%) ([1]; Ponatinib alone 62.5 nM): 103.26% | Survival Rate (%) ([1]; Ponatinib alone 250 nM): 94.14% | Survival Rate (%) ([1]; Ponatinib alone 1000 nM): 68.81% | Survival Rate (%) ([2]; Ponatinib alone 15.625 nM): 98.02% | Survival Rate (%) ([2]; Ponatinib alone 31.25 nM): 97.47% | Survival Rate (%) ([2]; Ponatinib alone 62.5 nM): 99.87% | Survival Rate (%) ([2]; Ponatinib alone 125 nM): 96.84% | Survival Rate (%) ([2]; Ponatinib alone 250 nM): 87.54% | Survival Rate (%) ([2]; Ponatinib alone 500 nM): 75.12% | Survival Rate (%) ([2]; Ponatinib alone 1000 nM): 69.06% | Survival Rate (%) ([3]; Ponatinib alone 15.625 nM): 101.54% | Survival Rate (%) ([3]; Ponatinib alone 31.25 nM): 106.99% | Survival Rate (%) ([3]; Ponatinib alone 62.5 nM): 105.05% | Survival Rate (%) ([3]; Ponatinib alone 125 nM): 107.07% | Survival Rate (%) ([3]; Ponatinib alone 250 nM): 104.14% | Survival Rate (%) ([3]; Ponatinib alone 500 nM): 93.76% | Survival Rate (%) ([3]; Ponatinib alone 1000 nM): 81.32%

B1: TRAIL: DR5 natural ligand TRAIL (Sino Biological) (protein, UniProt P50591 1-281, looked up)
Tumor necrosis factor ligand …: MAMMEVQGGPSLGQTCVLIVIFTVLLQSLCVAVTYVYFTNELKQMQDKYSKSGIACFLKEDDSYWDPNDEESMNSPCWQVKWQLRQLVRKMILRTSEETISTVQEKQQNISPLVRERGPQRVAAHITGTRGRSNTLSSPNSKNEKALGRKINSWESSRSGHSFLSNLHLRNGELVIHEKGFYYIYSQTYFRFQEEIKENTKNDKQMVQYIYKYTSYPDPILLMKSARNSCWSKDAEYGLYSIYQGGIFELKENDRIFVSVTNEHLIDMDHEASFFGAFLVG
CDI [1]: 0.3303 | killing effect ([1]; drug alone): did not have a significant killing effect | CDI [2]: 0.5179 | CDI [3]: 0.7329
